Data from patent US5525599A, “7-substituted-amino-3-substituted-3-cephem-4-carboxylic acids” (Eli Lilly and Company, priority 1993, dated 1996).
In brackets after ≈: the same amount, converted by molar mass. Read-outs that look alike come from different tables or passages of the source.

What was measured:
E. coli (EC14) = assay: In vitro activity (MIC), agar dilution method; type: cell-based; details: Escherichia coli
Experimental: (§1) Cephalosporins 9a-o were assayed against a broad array of Gram-positive and Gram-negative bacteria in Mueller-Hinton agar by the 2-fold serial dilution method, (Kirst, H. A.; J. Antibiot. 1982, 35, 1675).
(§2) Test compounds were diluted to an appropriate range of concentrations in 0.1M phosphate buffer (pH 7), incorporated into Mueller-Hinton agar (difco) supplemented with 1% Bacto-Supplement C (Difco) at 50° C. and allowed to solidify in petri dishes. Fresh overnight cultures of test bacteria were diluted to approximately 1×10^4 cells/mL aand applied in […] to the surface of the agar plates. The inoculated plates were incubated overnight at 35° C. in ambient air. MIC endpoints were recorded as the lowest antibiotic concentrations that inhibited the development of visible bacterial growth on the plates.

E. coli (N10) = assay: In vitro activity (MIC), agar dilution method; type: cell-based; details: Escherichia coli
Experimental: as §1, §2

E. coli (TEM) = assay: In vitro activity (MIC), agar dilution method; type: cell-based; details: Escherichia coli
Experimental: as §1, §2

Enter. faecalis (2041) = assay: In vitro activity (MIC), agar dilution method; type: cell-based; details: Enterococcus faecalis; Enter. faecalis (2041), agar dilution; read-out: MIC
Experimental: as §1, §2

Enter. faecium (X66) = assay: In vitro activity (MIC), agar dilution method; type: cell-based; details: Enterococcus faecium; Enter. faecium (X66), agar dilution; read-out: MIC
Experimental: as §1, §2

H. influenzae (76) = assay: In vitro activity (MIC), agar dilution method; type: cell-based; details: Haemophilus influenzae; H. influenzae (76), agar dilution; read-out: MIC
Experimental: as §1, §2

H. influenzae (C.L.) = assay: In vitro activity (MIC), agar dilution method; type: cell-based; details: Haemophilus influenzae; H. influenzae (C.L.), agar dilution; read-out: MIC
Experimental: as §1, §2

K. pneumonia (KAE) = assay: In vitro activity (MIC), agar dilution method; type: cell-based; details: Klebsiella pneumoniae
Experimental: as §1, §2

K. pneumonia (X26) = assay: In vitro activity (MIC), agar dilution method; type: cell-based; details: Klebsiella pneumoniae; K. pneumonia (X26), agar dilution; read-out: MIC
Experimental: as §1, §2

K. pneumonia (X68) = assay: In vitro activity (MIC), agar dilution method; type: cell-based; details: Klebsiella pneumoniae
Experimental: as §1, §2

Staph. aureus (V41) = assay: In vitro activity (MIC), agar dilution method; type: cell-based; details: Staphylococcus aureus; Staph. aureus (V41), agar dilution; read-out: MIC
Experimental: as §1, §2

Staph. aureus (X1.1) = assay: In vitro activity (MIC), agar dilution method; type: cell-based; details: Staphylococcus aureus; Staph. aureus (X1.1), agar dilution; read-out: MIC
Experimental: as §1, §2

Staph. aureus (X400) = assay: In vitro activity (MIC), agar dilution method; type: cell-based; details: Staphylococcus aureus; Staph. aureus (X400), methicillin-resistant strain, agar dilution; read-out: MIC
Experimental: as §1, §2

Staph. epiderm. (222) = assay: In vitro activity (MIC), agar dilution method; type: cell-based; details: Staphylococcus epidermidis; Staph. epiderm. (222), methicillin-resistant strain, agar dilution; read-out: MIC
Experimental: as §1, §2

Staph. epiderm. (270) = assay: In vitro activity (MIC), agar dilution method; type: cell-based; details: Staphylococcus epidermidis, methicillin-resistant strain
Experimental: as §1, §2

Strept. pyogenes (C203) = assay: In vitro activity (MIC), agar dilution method; type: cell-based; details: Streptococcus pyogenes; Strept. pyogenes (C203), agar dilution; read-out: MIC
Experimental: as §1, §2

other Gram(-) bacteria = assay: In vitro activity (MIC), agar dilution method; type: cell-based
[1] = test system: 33 strains of methicillin-resistant staphylococci; assay: Geometric mean MICs against 33 strains of methicillin-resistant staphylococci; type: cell-based; details: for MIC: 33 strains, read-out: Geometric mean MIC; for MICs relative to clinically achievable concentrations for cephalosporins / change of MICs in the presence of NaCl: in words, 4% NaCl
Experimental: as §2
It is known that resistance to methicillin in staphylococci is often of the heterogeneous type and therefore not easily detected. […] (Goldstein, F. W.; Acar, J. J. Antimicrob. Chemother. […], 27, 549). […] J.; Drake T. A.; Rusnak, M. G.; Sande, M. A. J. Infect. Dis. 1984, 149, 894).

[2] = MICs against 4 strains of methicillin-resistant staphylococci; type: cell-based, Staphylococcus aureus and Staphylococcus epidermidis; details: Staphylococcus aureus, read-out: minimal inhibitory concentrations (MICs)
Experimental: as §1, §2

Staph. aureus (S13E) = assay: In vitro activity (MIC), agar dilution method; type: cell-based; details: Staphylococcus aureus
Experimental: as §1, §2

[3] = E. coli (EC14), agar dilution, read-out: MIC
[4] = E. coli (N10), agar dilution, read-out: MIC
[5] = K. pneumonia (KAE), agar dilution, read-out: MIC
[6] = K. pneumonia (X68), agar dilution, read-out: MIC

Row | Compound | MIC (E. coli (EC14)) | MIC (E. coli (N10)) | MIC (E. coli (TEM)) | MIC (Enter. faecalis (2041)) | MIC (Enter. faecium (X66)) | MIC (H. influenzae (76)) | MIC (H. influenzae (C.L.)) | MIC (K. pneumonia (KAE)) | MIC (K. pneumonia (X26)) | MIC (K. pneumonia (X68)) | MIC (Staph. aureus (V41)) | MIC (Staph. aureus (X1.1)) | MIC (Staph. aureus (X400)) | MIC (Staph. epiderm. (222)) | MIC (Staph. epiderm. (270)) | MIC (Strept. pyogenes (C203)) | MIC (other Gram(-) bacteria) | MIC ([1]; MHA + 4% NaCl, 35° C.) | MIC ([1]; MHA) | MIC [2] | also measured
1 | CC(=O)OCC1=C(C(=O)O)N2C(=O)[C@@H](NC(=O)Cc3csc(-c4ccccc4O)n3)[C@H]2SC1 [9a, [6R-[6A,7B(R*)]]-3-[(Acetyloxy)methyl]-7-[[[2-(2-hydroxyphenyl)-4-thiazolyl]acetyl]amino]-8-oxo-5-thia-1-azabicyclo[4.2.0]oct-2-ene-2-carboxylic Acid] | 128 µg/mL (≈ 261 µM) | 128 µg/mL (≈ 261 µM) | 128 µg/mL (≈ 261 µM) | 2 µg/mL (≈ 4.09 µM) | 16 µg/mL (≈ 32.7 µM) | 0.5 µg/mL (≈ 1.02 µM) | 8 µg/mL (≈ 16.3 µM) | 128 µg/mL (≈ 261 µM) | 2 µg/mL (≈ 4.09 µM) | 128 µg/mL (≈ 261 µM) | 0.25 µg/mL (≈ 0.511 µM) | 0.03 µg/mL (≈ 0.0613 µM) | 2 µg/mL (≈ 4.09 µM) | 4 µg/mL (≈ 8.17 µM) | 0.125 µg/mL (≈ 0.255 µM) | 1 µg/mL (≈ 2.04 µM) | > 64 µg/mL | 2.4 µg/mL | 1.7 µg/mL (≈ 3.47 µM) | ≤ 16 µg/mL | MICs relative to clinically achievable concentrations for cephalosporins [1]: remained in the range usually considered to be clinically achievable concentrations for cephalosporins; change of MICs in the presence of NaCl [1]: only slightly elevated in the presence of NaCl
2 | CC(=O)OCC1=C(C(=O)O)N2C(=O)[C@@H](NC(=O)Cc3csc(-c4c(O)cccc4O)n3)[C@H]2SC1 [9e, [6R-[6A,7B(R*)]]-3-[(Acetyloxy)methyl]-7-[[[2-(2,6-dihydroxyphenyl)-4-thiazolyl]acetyl]amino]-8-oxo-5-thia-1-azabicyclo[4.2.0]oct-2-ene-2-carboxylic Acid] |  |  |  | 4 µg/mL (≈ 7.91 µM) | 4 µg/mL (≈ 7.91 µM) | 4 µg/mL (≈ 7.91 µM) | 4 µg/mL (≈ 7.91 µM) |  | 0.5 µg/mL (≈ 0.989 µM) |  | 16 µg/mL (≈ 31.6 µM) | 8 µg/mL (≈ 15.8 µM) | 16 µg/mL (≈ 31.6 µM) | 0.5 µg/mL (≈ 0.989 µM) | 4 µg/mL (≈ 7.91 µM) | 0.03 µg/mL (≈ 0.0593 µM) | > 64 µg/mL |  |  | ≤ 16 µg/mL | MIC (E. coli (EC14); [3]): 16 µg/mL (≈ 31.6 µM); MIC (E. coli (N10); [4]): 64 µg/mL (≈ 127 µM); MIC (K. pneumonia (KAE); [5]): 128 µg/mL (≈ 253 µM); MIC (K. pneumonia (X68); [6]): 16 µg/mL (≈ 31.6 µM); MIC (Staph. aureus (S13E)): 4 µg/mL (≈ 7.91 µM)
3 | O=C(Cc1csc(-c2c(O)cccc2O)n1)N[C@@H]1C(=O)N2C(C(=O)O)=C(Cl)CS[C@H]12 [9f, [6R-[6A, 7B (R*)]]-3-Chloro-7-[[[2-(2,6-dihydroxyphenyl)-4-thiazolyl]acetyl]amino]-8-oxo-5-thia-1-azabicyclo[4.2.0]oct-2-ene-2-carboxylic Acid] |  |  |  | 8 µg/mL (≈ 17.1 µM) | 8 µg/mL (≈ 17.1 µM) | 1 µg/mL (≈ 2.14 µM) | 1 µg/mL (≈ 2.14 µM) |  | 0.5 µg/mL (≈ 1.07 µM) |  | 16 µg/mL (≈ 34.2 µM) | 16 µg/mL (≈ 34.2 µM) | 16 µg/mL (≈ 34.2 µM) | 2 µg/mL (≈ 4.27 µM) | 8 µg/mL (≈ 17.1 µM) | 0.06 µg/mL (≈ 0.128 µM) | > 64 µg/mL |  |  |  | MIC (E. coli (EC14); [3]): 32 µg/mL (≈ 68.4 µM); MIC (E. coli (N10); [4]): 32 µg/mL (≈ 68.4 µM); MIC (K. pneumonia (KAE); [5]): 128 µg/mL (≈ 274 µM); MIC (K. pneumonia (X68); [6]): 32 µg/mL (≈ 68.4 µM)
4 | CC(=O)OCC1=C(C(=O)O)N2C(=O)[C@@H](NC(=O)Cc3csc(-c4ncccc4O)n3)[C@H]2SC1 [9i, [6R-[6A,7B(R*)]]-3-[(Acetyloxy)methyl]-7-[[[2-(3-hydroxy-2-pyridinyl)-4-thiazolyl]acetyl]amino]-8-oxo-5-thia-1-azabicyclo[4.2.0]oct-2-ene-2-carboxylicAcid] | 128 µg/mL (≈ 261 µM) | 128 µg/mL (≈ 261 µM) | 128 µg/mL (≈ 261 µM) | 8 µg/mL (≈ 16.3 µM) | 8 µg/mL (≈ 16.3 µM) | 2 µg/mL (≈ 4.08 µM) | 4 µg/mL (≈ 8.15 µM) | 128 µg/mL (≈ 261 µM) | 1 µg/mL (≈ 2.04 µM) | 128 µg/mL (≈ 261 µM) | 0.5 µg/mL (≈ 1.02 µM) | 0.125 µg/mL (≈ 0.255 µM) | 4 µg/mL (≈ 8.15 µM) | 0.125 µg/mL (≈ 0.255 µM) | 0.5 µg/mL (≈ 1.02 µM) | 0.015 µg/mL (≈ 0.0306 µM) | > 64 µg/mL | 8 µg/mL | 4.8 µg/mL (≈ 9.79 µM) | ≤ 16 µg/mL | MIC (Staph. aureus (S13E)): 2 µg/mL (≈ 4.08 µM); MICs relative to clinically achievable concentrations for cephalosporins [1]: remained in the range usually considered to be clinically achievable concentrations for cephalosporins; change of MICs in the presence of NaCl [1]: only slightly elevated in the presence of NaCl
